Earlier results as cited in publication PMC3341666 (Biochemistry, 2009).

How the values were obtained:
[1] = biological target: Prostate-Specific Antigen (PSA) (Homo sapiens, UniProt P07288); conditions: introduction statement, no reference given
Bovine α-Chymotrypsin = Bovine α-Chymotrypsin (Bos taurus, UniProt P00766); conditions: previous study

Chain of Prostate-Specific Antigen (PSA) (P07288 25-261): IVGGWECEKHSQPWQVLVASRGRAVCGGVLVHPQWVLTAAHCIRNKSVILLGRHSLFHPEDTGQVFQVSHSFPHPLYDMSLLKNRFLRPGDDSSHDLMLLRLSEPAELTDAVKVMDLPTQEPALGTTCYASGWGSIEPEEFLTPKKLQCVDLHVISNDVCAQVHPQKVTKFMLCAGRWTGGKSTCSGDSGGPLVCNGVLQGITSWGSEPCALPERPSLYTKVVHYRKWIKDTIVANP

Row | Compound | PSA inhibition (in words) [1] | fold higher Ki for chymotrypsin (vs PSA) (Bovine α-Chymotrypsin)
1 | Cc1ccc(S(=O)(=O)N[C@@H](Cc2ccccc2)C(=O)CCl)cc1 [TPCK, tosyl-phenylalanine chloromethylketone] | poor PSA inhibitors | 
2 | Z-SSKL(boro)L |  | ~ 65 fold
3 | O=S(=O)(F)Cc1ccccc1 [PMSF, phenylmethylsulphonyl fluoride] | poor PSA inhibitors | 
